Source: patent US7713994B2 (Wyeth LLC, priority 2005, dated 2010)

molecular target: T1, cyclin D1/cdk 4 enzyme (Homo sapiens, UniProt P11802); test: CDK4 ELISA kinase assay (phospho-Rb ser 795 detection); assay type: biochemical; conditions: In Vitro Enzyme Assay, cyclin D1/cdk 4, read-out: CDK4 IC50
T1 construct: made in house; host or cells: Sf9 insect cells, recombinant baculovirus
Outline: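 GST-Rb C-terminal fragment coated on plates; partially purified Sf9-expressed cyclin D1/CDK4, cyclin E/CDK2 or cyclin B/CDK1 with 200 μM ATP, pH 7.5 HEPES/MgCl2 buffer, 1 h at 30 °C; screen compound final 10 μg/ml. Phospho-Rb Ser795 detected by antibody ELISA (TMB, A450); % of control, IC50 from background-subtracted inhibition curves.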

T1 sequence (P11802 whole entry, species assumed): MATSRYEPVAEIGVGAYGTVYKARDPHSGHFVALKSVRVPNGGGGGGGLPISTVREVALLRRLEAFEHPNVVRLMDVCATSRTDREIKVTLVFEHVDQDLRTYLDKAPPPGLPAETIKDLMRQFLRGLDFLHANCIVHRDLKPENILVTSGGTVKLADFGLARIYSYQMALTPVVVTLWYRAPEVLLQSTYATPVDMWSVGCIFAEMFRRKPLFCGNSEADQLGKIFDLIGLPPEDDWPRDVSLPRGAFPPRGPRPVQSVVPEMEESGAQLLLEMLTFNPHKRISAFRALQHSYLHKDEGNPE
T1 sequence (P24385 whole entry partner, species assumed): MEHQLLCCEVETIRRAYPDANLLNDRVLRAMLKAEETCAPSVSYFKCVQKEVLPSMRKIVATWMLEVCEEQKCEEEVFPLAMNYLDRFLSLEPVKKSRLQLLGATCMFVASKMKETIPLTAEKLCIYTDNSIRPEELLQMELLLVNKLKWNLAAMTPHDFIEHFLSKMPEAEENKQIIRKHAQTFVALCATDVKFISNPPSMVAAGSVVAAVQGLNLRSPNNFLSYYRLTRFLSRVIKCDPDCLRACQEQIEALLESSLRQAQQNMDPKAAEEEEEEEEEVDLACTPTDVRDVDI

IC50 [µM] | SMILES
11 | Cc1ccccc1-c1ccc2c(c1)C(=CNCc1ccc(S(N)(=O)=O)cc1)C(=O)NC2=O [Example 754, 4-{[(1,3-Dioxo-6-o-tolyl-2,3-dihydro-1H-isoquinolin-4-ylidenemethyl)-amino]-methyl}-benzenesulfonamide]
31.1 | NS(=O)(=O)c1ccc(CNC=C2C(=O)NC(=O)c3ccc(-c4ccc(-c5ccccc5)cc4)cc32)cc1 [Example 757, 4-{[(6-Biphenyl-4-yl-1,3-dioxo-2,3-dihydro-1H-isoquinolin-4-ylidenemethyl)-amino]-methyl}-benzenesulfonamide]
25.7 | NS(=O)(=O)c1ccc(CNC=C2C(=O)NC(=O)c3ccc(-c4cccc(-c5ccccc5)c4)cc32)cc1 [Example 758, 4-{[(6-Biphenyl-3-yl-1,3-dioxo-2,3-dihydro-1H-isoquinolin-4-ylidenemethyl)-amino]-methyl}-benzenesulfonamide]
1.7 | NS(=O)(=O)c1ccc(CNC=C2C(=O)NC(=O)c3ccc(-c4ccc(C=CC(=O)O)cc4)cc32)cc1 [Example 759, 3-(4-{1,3-Dioxo-4-[(4-sulfamoyl-benzylamino)-methylene]-1,2,3,4-tetrahydro-isoquinolin-6-yl}-phenyl)-acrylic acid]
2.2 | NS(=O)(=O)c1ccc(CNC=C2C(=O)NC(=O)c3ccc(-c4cccc(C=CC(=O)O)c4)cc32)cc1 [Example 760, 3-(3-{1,3-Dioxo-4-[(4-sulfamoyl-benzylamino)-methylene]-1,2,3,4-tetrahydro-isoquinolin-6-yl}-phenyl)-acrylic acid]
18.4 | CC(C)c1ccc(-c2ccc3c(c2)C(=CNCc2ccc(S(N)(=O)=O)cc2)C(=O)NC3=O)cc1 [Example 761, 4-({[6-(4-Isopropyl-phenyl)-1,3-dioxo-2,3-dihydro-1H-isoquinolin-4-ylidenemethyl]-amino}-methyl)-benzenesulfonamide]
33.6 | CC(C)c1cccc(-c2ccc3c(c2)C(=CNCc2ccc(S(N)(=O)=O)cc2)C(=O)NC3=O)c1 [Example 762, 4-({[6-(3-Isopropyl-phenyl)-1,3-dioxo-2,3-dihydro-1H-isoquinolin-4-ylidenemethyl]-amino}-methyl)-benzenesulfonamide]
49.6 | CSc1ccc(-c2ccc3c(c2)C(=CNCc2ccc(S(N)(=O)=O)cc2)C(=O)NC3=O)cc1 [Example 763, 4-({[6-(4-Methylsulfanyl-phenyl)-1,3-dioxo-2,3-dihydro-1H-isoquinolin-4-ylidenemethyl]-amino}-methyl)-benzenesulfonamide]
1.4 | O=C1NC(=O)c2ccc(-c3ccccc3C(F)(F)F)cc2C1=CNCc1ccc(O)c(O)c1 [Example 774, 4-[(3,4-Dihydroxy-benzylamino)-methylene]-6-(2-trifluoromethyl-phenyl)-4H-isoquinoline-1,3-dione]
3.78 | CC(=O)c1ccccc1-c1ccc2c(c1)C(=CNCc1ccc(O)c(O)c1)C(=O)NC2=O [Example 777, 6-(2-Acetyl-phenyl)-4-[(3,4-dihydroxy-benzylamino)-methylene]-4H-isoquinoline-1,3-dione]
1.23 | Cc1ccccc1-c1ccc2c(c1)C(=CNCc1ccc(O)c(O)c1)C(=O)NC2=O [Example 783, 4-[(3,4-Dihydroxy-benzylamino)-methylene]-6-o-tolyl-4H-isoquinoline-1,3-dione]
9.74 | O=C1NC(=O)c2ccc(-c3ccc(-c4ccccc4)cc3)cc2C1=CNCc1ccc(O)c(O)c1 [Example 786, 6-Biphenyl-4-yl-4-[(3,4-dihydroxy-benzylamino)-methylene]-4H-isoquinoline-1,3-dione]
2.27 | O=C1NC(=O)c2ccc(-c3cccc(-c4ccccc4)c3)cc2C1=CNCc1ccc(O)c(O)c1 [Example 787, 6-Biphenyl-3-yl-4-[(3,4-dihydroxy-benzylamino)-methylene]-4H-isoquinoline-1,3-dione]
1.45 | CC(C)c1ccc(-c2ccc3c(c2)C(=CNCc2ccc(O)c(O)c2)C(=O)NC3=O)cc1 [Example 790, 4-[(3,4-Dihydroxy-benzylamino)-methylene]-6-(4-isopropyl-phenyl)-4H-isoquinoline-1,3-dione]
4.99 | CC(C)c1cccc(-c2ccc3c(c2)C(=CNCc2ccc(O)c(O)c2)C(=O)NC3=O)c1 [Example 791, 4-[(3,4-Dihydroxy-benzylamino)-methylene]-6-(3-isopropyl-phenyl)-4H-isoquinoline-1,3-dione]
1.96 | CSc1ccccc1-c1ccc2c(c1)C(=CNCc1ccc(O)c(O)c1)C(=O)NC2=O [Example 793, 4-[(3,4-Dihydroxy-benzylamino)-methylene]-6-(2-methylsulfanyl-phenyl)-4H-isoquinoline-1,3-dione]
41.7 | CCN(CC)CCOC=Cc1ccc2c(c1)C(=CNc1ccc(N3CCN(C)CC3)cc1)C(=O)NC2=O [Example 794, 6-[2-(2-Diethylamino-ethoxy)-vinyl]-4-{[4-(4-methyl-piperazin-1-yl)-phenylamino]-methylene}-4H-isoquinoline-1,3-dione]

IC50 [µM] | SMILES
24.2 | CN1CCN(c2ccc(NC=C3C(=O)NC(=O)c4ccc(C=CCCC(=O)O)cc43)cc2)CC1 [Example 795, 5-(4-{[4-(4-Methyl-piperazin-1-yl)-phenylamino]-methylene}-1,3-dioxo-1,2,3,4-tetrahydro-isoquinolin-6-yl)-pent-4-enoic acid]
2.27 | CN1CCN(c2ccc(NC=C3C(=O)NC(=O)c4ccc(C=CCCO)cc43)cc2)CC1 [Example 796, 6-(4-Hydroxy-but-1-enyl)-4-{[4-(4-methyl-piperazin-1-yl)-phenylamino]-methylene}-4H-isoquinoline-1,3-dione]
2.5 | CN1CCN(c2ccc(NC=C3C(=O)NC(=O)c4ccc(C=CCCCCO)cc43)cc2)CC1 [Example 798, 6-(6-Hydroxy-hex-1-enyl)-4-{[4-(4-methyl-piperazin-1-yl)-phenylamino]-methylene}-4H-isoquinoline-1,3-dione]
6.37 | CN1CCN(c2ccc(NC=C3C(=O)NC(=O)c4ccc(C=CCOCCO)cc43)cc2)CC1 [Example 799, 6-[3-(2-Hydroxy-ethoxy)-propenyl]-4-{[4-(4-methyl-piperazin-1-yl)-phenylamino]-methylene}-4H-isoquinoline-1,3-dione]
5.04 | CN1CCN(c2ccc(NC=C3C(=O)NC(=O)c4ccc(C=CCN5CC(=O)NC5=O)cc43)cc2)CC1 [Example 800, 6-[3-(2,4-Dioxo-imidazolidin-1-yl)-propenyl]-4-{[4-(4-methyl-piperazin-1-yl)-phenylamino]-methylene}-4H-isoquinoline-1,3-dione]
15.5 | CN1CCN(c2ccc(NC=C3C(=O)NC(=O)c4ccc(C=CCc5ccccc5O)cc43)cc2)CC1 [Example 801, 6-[3-(2-Hydroxy-phenyl)-propenyl]-4-{[4-(4-methyl-piperazin-1-yl)-phenylamino]-methylene}-4H-isoquinoline-1,3-dione]
15 | CC(C#N)=C(C)c1ccc2c(c1)C(=CNc1ccc(N3CCN(C)CC3)cc1)C(=O)NC2=O [Example 802, 2-Methyl-3-(4-{[4-(4-methyl-piperazin-1-yl)-phenylamino]-methylene}-1,3-dioxo-1,2,3,4-tetrahydro-isoquinolin-6-yl)-but-2-enenitrile]
4.97 | CN1CCN(c2ccc(NC=C3C(=O)NC(=O)c4ccc(C=Cc5ccc(CC#N)cc5)cc43)cc2)CC1 [Example 803, {4-[2-(4-{[4-(4-Methyl-piperazin-1-yl)-phenylamino]-methylene}-1,3-dioxo-1,2,3,4-tetrahydro-isoquinolin-6-yl)-vinyl]-phenyl}-acetonitrile]
2.1 | CN1CCN(c2ccc(NC=C3C(=O)NC(=O)c4ccc(-c5ccc6c(c5)OCO6)cc43)cc2)CC1 [Example 806, 6-Benzo[1,3]dioxol-5-yl-4-{[4-(4-methyl-piperazin-1-yl)-phenylamino]-methylene}-4H-isoquinoline-1,3-dione]
14.5 | CN1CCN(c2ccc(NC=C3C(=O)NC(=O)c4ccc(-c5ccc(N(C)C)cc5)cc43)cc2)CC1 [Example 807, 6-(4-Dimethylamino-phenyl)-4-{[4-(4-methyl-piperazin-1-yl)-phenylamino]-methylene}-4H-isoquinoline-1,3-dione]
13.8 | CN1CCN(c2ccc(NC=C3C(=O)NC(=O)c4ccc(-c5ccc(CCC(=O)O)cc5)cc43)cc2)CC1 [Example 809, 3-[4-(4-{[4-(4-Methyl-piperazin-1-yl)-phenylamino]-methylene}-1,3-dioxo-1,2,3,4-tetrahydro-isoquinolin-6-yl)-phenyl]-propionic acid]
2.76 | CN1CCN(c2ccc(NC=C3C(=O)NC(=O)c4ccc(-c5cccc(N)c5)cc43)cc2)CC1 [Example 810, 6-(3-Amino-phenyl)-4-{[4-(4-methyl-piperazin-1-yl)-phenylamino]-methylene}-4H-isoquinoline-1,3-dione]
22.3 | CN1CCN(c2ccc(NC=C3C(=O)NC(=O)c4ccc(-c5ccc(Cl)cc5Cl)cc43)cc2)CC1 [Example 811, 6-(2,4-Dichloro-phenyl)-4-{[4-(4-methyl-piperazin-1-yl)-phenylamino]-methylene}-4H-isoquinoline-1,3-dione]
2.75 | COc1ccc(-c2ccc3c(c2)C(=CNCc2ccc(O)c(O)c2)C(=O)NC3=O)c(OC)c1 [Example 814, 4-[(3,4-Dihydroxy-benzylamino)-methylene]-6-(2,4-dimethoxy-phenyl)-4H-isoquinoline-1,3-dione]
2.5 | COc1cc(-c2ccc3c(c2)C(=CNCc2ccc(O)c(O)c2)C(=O)NC3=O)cc(OC)c1OC [Example 815, 4-[(3,4-Dihydroxy-benzylamino)-methylene]-6-(3,4,5-trimethoxy-phenyl)-4H-isoquinoline-1,3-dione]
4.4 | CN1CCN(c2ccc(NC=C3C(=O)NC(=O)c4ccc(C=C5CCCC5)cc43)cc2)CC1 [Example 828, 6-Cyclopentylidenemethyl-4-{[4-(4-methyl-piperazin-1-yl)-phenylamino]-methylene}-4H-isoquinoline-1,3-dione]
